Experimental data reported in patent publication US5300512A, “Benzimidazole compounds” (G. D. Searle & Co., priority 1992, dated 1994).
pEC50, pIC50, pKi: −log10 of the molar value.

Legend:
5-HT3 = assay: Bezold-Jarisch reflex: reduction of 5-HT-induced bradycardia in anesthetized mice; format: in vivo; conditions: i.p., 30 min before 5-HT 0.25 mg/kg i.v.; >50% reduction of bradycardia considered significant
Experimental: (§1) 5-HT4 agonist activity was determined in the in vitro rat tunica muscularis mucosae (TMM) assay. (Baxter et al., Naunyn Schmied Arch. Pharmacol, 1991, 343, 439). The 5-HT4 agonist or antagonist and/or 5-HT3 antagonist activity of the compounds of the invention can be determined by these assays described herein, without undue experimentation.
The compound to be evaluated was administered i.p. (mg/kg) to a group of 3 mice. […] This method has been described by Saxena, P. R. and Lawang, A., Arch. Int. Pharmacodyn., 277: 235-252, 1985.

5-HT3 receptor = molecular target: T1, 5-HT3 receptor (Rattus norvegicus, UniProt P35563); assay: [3H]-GR65630 radioligand binding to 5-HT3 receptor, rat brain cortex membranes
T1 construct: Brain cortices were obtained from male rats and a membrane fraction prepared by standard techniques; from tissue; host or cells: rat brain cortex, membrane fraction
T1 sequence (P35563 24-483): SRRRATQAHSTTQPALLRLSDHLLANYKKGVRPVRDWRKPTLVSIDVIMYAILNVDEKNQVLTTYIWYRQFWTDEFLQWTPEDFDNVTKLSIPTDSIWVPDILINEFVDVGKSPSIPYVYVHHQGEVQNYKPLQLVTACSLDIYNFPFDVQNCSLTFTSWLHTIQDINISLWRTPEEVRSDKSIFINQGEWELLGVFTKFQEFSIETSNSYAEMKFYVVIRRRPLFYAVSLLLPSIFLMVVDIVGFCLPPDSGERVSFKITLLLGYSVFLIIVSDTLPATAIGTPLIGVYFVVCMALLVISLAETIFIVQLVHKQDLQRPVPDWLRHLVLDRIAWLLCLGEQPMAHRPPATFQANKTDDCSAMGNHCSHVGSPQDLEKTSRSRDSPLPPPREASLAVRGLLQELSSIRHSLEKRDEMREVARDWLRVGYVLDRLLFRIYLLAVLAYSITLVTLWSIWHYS
Experimental: as §1
GR65630 binds to the 5-HT3 receptor. Brain cortices were obtained from male rats and a membrane fraction prepared by standard techniques. 0.04 mg of membrane prep was incubated with 0.2 nM […] for 60 minutes at 22° C. […] Membranes were filtered and washed 3 times and the filters were counted to determine [3H]-GR65630 specifically bound. (Kilpatrick G. J., Jones B. J. and Tyers M. B. Identification and distribution of 5-HT3 receptors in rat brain using radioligand binding. Nature, 330: 746-748, 1987).

5-HT4 receptor = molecular target: T2, 5-HT4 receptor (Rattus norvegicus, UniProt Q62758); assay: In vitro functional assay for serotonin 5-HT4 agonism: rat TMM (relaxation of carbachol-contracted tunica muscularis mucosae); format: biochemical; conditions: rat esophagus, carbachol (3 μM) contracted, 37° C, tissues from 5 rats
T2 construct: The inner tunica muscularis mucosa was mounted under 0.2-0.3 g of tension in a tissue bath; from tissue; host or cells: rat intrathoracic esophagus, tunica muscularis mucosae
T2 sequence (Q62758 whole entry): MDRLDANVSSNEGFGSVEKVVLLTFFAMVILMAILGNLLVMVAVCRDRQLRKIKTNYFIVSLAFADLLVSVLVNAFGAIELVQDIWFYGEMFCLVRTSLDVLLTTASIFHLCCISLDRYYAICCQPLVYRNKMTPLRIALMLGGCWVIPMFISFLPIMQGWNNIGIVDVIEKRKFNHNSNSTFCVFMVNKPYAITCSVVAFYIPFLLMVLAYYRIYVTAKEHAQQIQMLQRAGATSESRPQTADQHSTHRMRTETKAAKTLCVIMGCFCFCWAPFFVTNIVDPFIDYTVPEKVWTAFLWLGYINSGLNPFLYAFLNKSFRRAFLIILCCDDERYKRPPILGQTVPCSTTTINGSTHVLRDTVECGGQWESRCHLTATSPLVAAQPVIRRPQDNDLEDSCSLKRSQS
Experimental: as §1
Agonist activity was determined utilizing relaxation of carbachol-contracted rat tunica muscularis mucosae. One 2 cm segment of intrathoracic esophagus proximal to the diaphragm was removed from male rats, weighing approximately 300 gm, and the outer muscle layers removed. The inner tunica muscularis mucosa was mounted under 0.2-0.3 g of tension in a tissue bath containing oxygenated Tyrode's solution at 37° C. […] Following a 30 min equilibrium period, tissues were isometrically contracted with carbachol (3 μM) to obtain a tonic contraction. A stable plateau was obtained within 20 min when test compound was added cumulatively to relax the muscle strip. EC50 values were obtained for each agonist in tissues from 5 rats.

Compound | Minimum Effective Dose (MED) (5-HT3) [mg/kg] | Hill Coefficient (5-HT3 receptor; [3H]-GR65630 bound (0.2 nM)) | also measured
O=c1[nH]c2ccccc2n1CCCN1CCC(n2c(=O)[nH]c3cc(Cl)ccc32)CC1 [domperidone] | > 10 |  | 
CN1C2CCC1CC(OC(=O)c1c[nH]c3ccccc13)C2 (stereo not shown) [ICS 205-930] |  | 1.0 | 
c1ccc2nc(N3CCNCC3)ccc2c1 [Quipazine] |  | 0.86 | 
Cc1[nH]cnc1CCC(=O)c1cn(C)c2ccccc12 [GR65630] |  |  | % Specific Binding (5-HT3 receptor; [3H]-GR65630, non-specific binding with 1 uM ICS 205-930): 70%
COc1ccc2[nH]cc(C3=CCNCC3)c2c1 [RU24969] |  | 1.0 | 
CC(C)n1c(=O)n(C(=O)NCC23CCN(CC2)CC3)c2ccccc21 [Example 10, N-(1-azabicyclo[2.2.2]octan-4-ylmethyl)-2,3-dihydro-3-(1-methylethyl)-2-oxo-1H-benzimidazole-1-carboxamide] | 0.03 |  | pIC50 (5-HT3 receptor; [3H]-GR65630 bound (0.2 nM)): 8.07; pKi (5-HT3 receptor; [3H]-GR65630 bound (0.2 nM)): 8.37; pEC50 (5-HT4 receptor): 6.90
CCN(CC)CCNC(=O)c1cc(Cl)c(N)cc1OC [metoclopramide] | 5 |  | 
CN1[C@@H]2C[C@@H](OC(=O)[C@H](CO)c3ccccc3)C[C@H]1[C@@H]1O[C@@H]12 [scopolamine] | 2.5 |  | 
CN1C2CCCC1CC(NC(=O)c1nn(C)c3ccccc13)C2 (stereo not shown) [BRL-43694] | 0.05 |  | 
COc1cc(N)c(Cl)cc1C(=O)NC1CN2CCC1CC2 (stereo not shown) [Zacopride] |  | 0.86 | 
